Activity calls are given as the source filed them. The rule behind the calls is not given here.

In test [1] the test system is HL-60. The test is described as follows: Cytotoxicity against human HL60 cells at 100 uM by MTT assay. A general note: Formazan colour is commonly taken as a measure of viable cells.
The test system of test [2] is A549. Put plainly: Cytotoxicity against human A549 cells at 100 uM by SRB assay. It counts as functional, cell-based.
Test [3] concerns A549. The test is described as follows: Cytotoxicity against human A549 cells by SRB assay. The test is classed as functional, cell-based. In general terms: The SRB assay estimates cell density from bound dye.
Test [4] relates to HL-60. Put plainly: Cytotoxicity against human HL60 cells by MTT assay.

Turning to `CC[C@H](C)CC[C@@H]1[C@H](C)CC[C@@H]2C(C)(C)CCC[C@@]12C`, the result in the test on HL-60 [1] and with A549 [2] was inactive.
As for `C[C@H]1C[C@@]23CC[C@@H]4C(C)(C)CCC[C@@]4(C)[C@@H]2CC[C@@H]1C3`, the outcome with HL-60 [1] and in the test with A549 [2] was inactive.
For the molecule `C[C@H]1C[C@]23CC[C@H]1C[C@H]2[C@]1(C)CCCC(C)(C)[C@H]1CC3`, the outcome in the test with HL-60 [1] and in the test with A549 [2] was inactive.
As for `CCCCCCCC[C@@H](O)/C=C/C=C/C(=O)O[C@@]12C[C@@H](C)[C@@]3(O)[C@@H](C=C(CO)C[C@]4(O)C(=O)C(C)=C[C@@H]34)[C@@H]1[C@@]2(C)COC(C)=O` [SAPINSIGNOID A], the 50% inhibitory concentration (IC50) was 1800 nM in the test with A549 [3] and 3.4 µM in the test on HL-60 [4].
`CCCCCCCC[C@H](O)/C=C/C=C/C(=O)O[C@@]12C[C@@H](C)[C@@]3(O)[C@@H](C=C(CO)C[C@]4(O)C(=O)C(C)=C[C@@H]34)[C@@H]1[C@@]2(C)COC(C)=O` [SAPINSIGNOID B]: the values for the concentration for half-maximal inhibition (IC50) with A549 [3] and in the test with HL-60 [4] were 200 nM and 6.5 µM, respectively.
In the same order, the values of `CCCCCCCCC(=O)/C=C/C=C/C(=O)O[C@@]12C[C@@H](C)[C@@]3(O)[C@@H](C=C(CO)C[C@]4(O)C(=O)C(C)=C[C@@H]34)[C@@H]1[C@@]2(C)COC(C)=O` [SAPINSIGNOID C] are 400 nM and 2.7 µM.
For the molecule `CCCCCCCC/C=C/C=C/CC(=O)O[C@@]12C[C@@H](C)[C@@]3(O)[C@@H](C=C(CO)C[C@]4(O)C(=O)C(C)=C[C@@H]34)[C@@H]1[C@@]2(C)COC(C)=O` [SAPINSIGNOID D], the half-maximal inhibitory concentration (IC50) in the test with A549 [3] was determined as 900 nM.

Usually IC50 stands for the concentration at which inhibition is half-maximal. A high value points to lower potency.
